Assay results taken from paper PMC9090415, “Discovery of small molecule inhibitors of Plasmodium falciparum apicoplast DNA polymerase” (Journal of Enzyme Inhibition and Medicinal Chemistry, 2022).

Biological target: P. falciparum apicoplast DNA polymerase (Pf-apPOL) (Plasmodium falciparum, UniProt Q8ILY1)
Test: Fluorescence-based high-throughput DNA polymerase assay (molecular beacon), primary screen and dose-response
Format: biochemical
Method: The HT assay employs a molecular beacon, a stem-loop DNA template with a Cy3 dye and the Black Hole Quencher on the 3′ and 5′ ends of the DNA, respectively. Pf-apPOL concentration is based on a calculated absorptivity of ε280 = 56750 M^−1 cm^−1. Reactions were carried out at 25 °C, using Corning 3575 […] (well-volume, 20 µL). Assays testing for compound inhibition composed of reaction buffer (pH 7.9 in 50 mM potassium acetate, 20 mM Tris-acetate and 10 mM magnesium acetate), Pf-apPOL (20 nM), DNA substrate (20 nM), dNTPs (6 µM), and compound (10 µM in DMSO). The DNA and nucleotide substrates (dNTPs) were at concentrations of 20 nM and 6 µM, respectively, in the assay. Pf-apPOL was incubated in the reaction buffer with dNTPs and the compound of interest (10 µM, in the assay) at 25 °C for 10 min. The DNA substrate was then added and the reaction was allowed to proceed for 90 min at 25 °C.
Each assay plate contained 16 negative controls (no Pf-apPOL, DMSO present) and 16 positive controls (Pf-apPOL present, no DMSO). The fluorescence of each well was determined using a BioTek Synergy Neo fluorescence plate reader using excitation and emission wavelengths of 555 and 570 nm, respectively.
In the above, Min is the average of fluorescence emission of the negative controls (substrate only), Max the average fluorescence emission from the positive controls (enzyme + substrate), and Test the emission from the assays in the presence of compounds (enzyme + compound + substrates). […] […] The IC50 of each compound was determined using Equation (2): (2) IC50= Vmax/(1+ (I/IC50)^n)
In the above, n measures cooperativity, with n > 1 indicating synergistic binding of more than a single molecule of the compound.
To identify apPOL inhibitors we utilised our previously developed high-throughput DNA polymerase assay. The HT assay is based on a molecular beacon DNA template that forms a stem-loop with a Cy3 dye and the Black Hole Quencher on the 3′ and 5′ ends of the DNA, respectively. DNA polymerase activity extends an annealed primer through the stem region, displacing the fluorophore from the quencher, thereby increasing its fluorescence (Figure 1(A)). The assay accurately recapitulates the kinetic behaviour of apPOL, as measured through more conventional low-throughput gel-based assays. The Z′ factor for the assay described here was 0.9 across all plates (data not shown).
Figure 1. High-throughput screening. (A) The fluorescent-based DNA polymerase assay used to screen the compound libraries. The DNA template strand is a hairpin loop with a primer annealed to the loop. The 3’ end of the primer is 11 bases away from the 6 bp duplex. Strand displacement activity of the DNA polymerase separates the Cy3 dye from the Black hole quencher leading to an increase in fluorescent signal. (B) The high-throughput assay workflow. The DNA polymerase is incubated with […] compound for 10 min prior to addition of the hairpin substrate. The reaction is quenched at 3 different time points and the fluorescent signal is measured and % inhibition is determined using the provided equation.

Sequence of P. falciparum apicoplast DNA polymerase (Pf-apPOL) (Q8ILY1 entry or part of it): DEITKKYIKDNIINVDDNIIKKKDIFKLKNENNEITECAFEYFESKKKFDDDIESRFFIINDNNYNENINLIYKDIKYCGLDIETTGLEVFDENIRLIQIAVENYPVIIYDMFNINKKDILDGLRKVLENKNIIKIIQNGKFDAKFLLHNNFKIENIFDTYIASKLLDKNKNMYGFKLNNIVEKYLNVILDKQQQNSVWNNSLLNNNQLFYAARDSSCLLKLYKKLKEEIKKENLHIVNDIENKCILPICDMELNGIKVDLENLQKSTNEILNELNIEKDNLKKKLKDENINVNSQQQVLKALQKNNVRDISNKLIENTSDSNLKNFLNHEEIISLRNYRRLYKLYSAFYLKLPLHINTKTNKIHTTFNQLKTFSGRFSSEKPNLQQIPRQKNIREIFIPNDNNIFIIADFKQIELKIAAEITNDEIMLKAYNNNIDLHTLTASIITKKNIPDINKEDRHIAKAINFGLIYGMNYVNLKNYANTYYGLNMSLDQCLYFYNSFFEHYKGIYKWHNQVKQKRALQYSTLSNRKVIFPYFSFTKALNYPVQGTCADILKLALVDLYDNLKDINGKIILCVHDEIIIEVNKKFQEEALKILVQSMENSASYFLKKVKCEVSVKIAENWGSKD

Cn1nc(C(=O)N2CCc3c(nc4cc(-c5ccccc5)[nH]n4c3=O)C2)c2ccccc21 [Molecule 18, O=c1c2CCN(Cc2nc2n1[nH]c(c2)c1ccccc1)C(=O)c1nn(c2c1cccc2)C]
DNA Pol (186 hits, value of the hit list (primary screen); unit not given; 90 min, 10 µM): 46 | % inhibition Apo pol 10' (DRC-1; 10'; concentration 2.5): 9% | % inhibition Apo pol 10' (DRC-1; 10'; concentration 5): 28% | % inhibition Apo pol 10' (DRC-1; 10'; concentration 10): 66% | % inhibition Apo pol 10' (DRC-1; 10'; concentration 20): 74% | % inhibition Apo pol 10' (DRC-1; 10'; concentration 40): 72% | % inhibition Apo pol 10' (DRC-1; 10'; concentration 80): 55% | % inhibition Apol 90' (DRC-1; 90'; concentration 2.5): 1.64% | % inhibition Apol 90' (DRC-1; 90'; concentration 5): 16% | % inhibition Apol 90' (DRC-1; 90'; concentration 10): 49% | % inhibition Apol 90' (DRC-1; 90'; concentration 20): 59% | % inhibition Apol 90' (DRC-1; 90'; concentration 40): 58% | % inhibition Apol 90' (DRC-1; 90'; concentration 80): 54% | % inhibition apPOL 180' (DRC-1; 180'; concentration 2.5): -3.8% | % inhibition apPOL 180' (DRC-1; 180'; concentration 5): 6% | % inhibition apPOL 180' (DRC-1; 180'; concentration 10): 33% | % inhibition apPOL 180' (DRC-1; 180'; concentration 20): 39% | % inhibition apPOL 180' (DRC-1; 180'; concentration 40): 34% | % inhibition apPOL 180' (DRC-1; 180'; concentration 80): 34% | % inhibition Apo pol 5' (DRC-2, 5', concentration 2.5): 5.33% | % inhibition Apo pol 5' (DRC-2, 5', concentration 5): 20% | % inhibition Apo pol 5' (DRC-2, 5', concentration 10): 36% | % inhibition Apo pol 5' (DRC-2, 5', concentration 20): 45% | % inhibition Apo pol 5' (DRC-2, 5', concentration 40): 43% | % inhibition Apo pol 5' (DRC-2, 5', concentration 80): 30% | % inhibition Apol 40' (DRC-2, 40', concentration 2.5): 4% | % inhibition Apol 40' (DRC-2, 40', concentration 5): 23% | % inhibition Apol 40' (DRC-2, 40', concentration 10): 40% | % inhibition Apol 40' (DRC-2, 40', concentration 20): 54% | % inhibition Apol 40' (DRC-2, 40', concentration 40): 56% | % inhibition Apol 40' (DRC-2, 40', concentration 80): 47% | % inhibition ApPOL 90' (DRC-2, 90', concentration 2.5): 4.38% | % inhibition ApPOL 90' (DRC-2, 90', concentration 5): 23% | % inhibition ApPOL 90' (DRC-2, 90', concentration 10): 39% | % inhibition ApPOL 90' (DRC-2, 90', concentration 20): 54% | % inhibition ApPOL 90' (DRC-2, 90', concentration 40): 55% | % inhibition ApPOL 90' (DRC-2, 90', concentration 80): 48% | % inhibition apPOL 180' (DRC-2, 180', concentration 2.5): 0.809% | % inhibition apPOL 180' (DRC-2, 180', concentration 5): 16% | % inhibition apPOL 180' (DRC-2, 180', concentration 10): 29% | % inhibition apPOL 180' (DRC-2, 180', concentration 20): 45% | % inhibition apPOL 180' (DRC-2, 180', concentration 40): 45% | % inhibition apPOL 180' (DRC-2, 180', concentration 80): 37% | % inhibition Apo pol 5' (DRC-2; 5'; concentration 20): 45% | % inhibition Apol 40' (DRC-2; 40'; concentration 5): 23% | % inhibition Apol 40' (DRC-2; 40'; concentration 20): 54% | % inhibition ApPOL 90' (DRC-2; 90'; concentration 5): 23% | % inhibition ApPOL 90' (DRC-2; 90'; concentration 10): 39% | % inhibition ApPOL 90' (DRC-2; 90'; concentration 20): 54% | % inhibition ApPOL 90' (DRC-2; 90'; concentration 40): 55% | % inhibition apPOL 180' (DRC-2; 180'; concentration 5): 16% | % inhibition apPOL 180' (DRC-2; 180'; concentration 20): 45% | % inhibition apPOL 180' (DRC-2; 180'; concentration 40): 45% | % inhibition Apo pol 10' (first dose-response; 10'; concentration 80): 55% | % inhibition Apol 90' (first dose-response; 90'; concentration 5): 16% | % inhibition Apol 90' (first dose-response; 90'; concentration 80): 54% | % inhibition apPOL 180' (first dose-response; 180'; concentration 20): 39% | % inhibition apPOL 180' (first dose-response; 180'; concentration 40): 34% | % inhibition apPOL 180' (first dose-response; 180'; concentration 80): 34% | DNA Pol (primary screen value, 'DNA Pol' only; 90 min, 10 µM): 46
